Results taken from patent US7012080B2, “Imidazopyridine compounds as 5-HT4 receptor agonists” (Pfizer Inc., priority 2002, dated 2006).

Experiments:
[1] = biological target: T1, 5-HT4 receptor (UniProt Q13639); experiment: 5-HT4 receptor binding ([3H]-GR113808 displacement)
T1 construct: Human 5-HT4(d) transfected HEK293 cells were prepared and grown in-house
Method: The 5-HT4 receptor binding affinities of the compounds of this invention are determined by the following procedures. […]
Human 5-HT4(d) transfected HEK293 cells were prepared and grown in-house. The collected cells were suspended in 50 mM HEPES (pH 7.4 at 4° C.) supplemented with protease inhibitor cocktail (Boehringer, 1:1000 dilution) and homogenized using a hand held Polytron PT 1200 disruptor set at full power for 30 sec on ice. The homogenates were centrifuged at 40,000×g at 4° C. for 30 min. The pellets were then resuspended in 50 mM HEPES (pH 7.4 at 4° C.) and centrifuged once more in the same manner. The final pellets were resuspended in an appropriate volume of 50 mM HEPES (pH 7.4 at 25° C.), homogenized, aliquoted and stored at −80° C. until use. An aliquot of membrane fractions was used for protein concentration determination using BCA protein assay kit (PIERCE) and ARVOsx plate reader (Wallac).
For the binding experiments, 25 μl of test compounds were incubated with 25 μl of [^3H]-GR113808 (Amersham, final 0.2 nM) and 150 μl of membrane homogenate and WGA-SPA beads (Amersham) suspension solutions (10 μg protein and 1 mg SPA beads/well) for 60 minutes at room temperature. Nonspecific binding was determined by 1 μM GR113808 (Tocris) at the final concentration. Incubation was terminated by centrifugation at 1000 rpm. Receptor-bound radioactivity was quantified by counting with MicroBeta plate counter (Wallac).

[2] = biological target: T2, HERG potassium channel (Homo sapiens, UniProt Q12809); experiment: Human dofetilide binding ([3H]-dofetilide, HERG transfected HEK293S cell membranes); conditions: for TI (Defetilide/5HT4): TI = Dofetilide Binding Ki [μM] / 5HT4 Binding Ki [nM] × 1000; for Ki: [3H]-dofetilide 5 nM, human HERG transfected HEK293S membranes
T2 construct: expressed in transfected cells; host or cells: HEK293S
T2 sequence (Q12809 whole entry): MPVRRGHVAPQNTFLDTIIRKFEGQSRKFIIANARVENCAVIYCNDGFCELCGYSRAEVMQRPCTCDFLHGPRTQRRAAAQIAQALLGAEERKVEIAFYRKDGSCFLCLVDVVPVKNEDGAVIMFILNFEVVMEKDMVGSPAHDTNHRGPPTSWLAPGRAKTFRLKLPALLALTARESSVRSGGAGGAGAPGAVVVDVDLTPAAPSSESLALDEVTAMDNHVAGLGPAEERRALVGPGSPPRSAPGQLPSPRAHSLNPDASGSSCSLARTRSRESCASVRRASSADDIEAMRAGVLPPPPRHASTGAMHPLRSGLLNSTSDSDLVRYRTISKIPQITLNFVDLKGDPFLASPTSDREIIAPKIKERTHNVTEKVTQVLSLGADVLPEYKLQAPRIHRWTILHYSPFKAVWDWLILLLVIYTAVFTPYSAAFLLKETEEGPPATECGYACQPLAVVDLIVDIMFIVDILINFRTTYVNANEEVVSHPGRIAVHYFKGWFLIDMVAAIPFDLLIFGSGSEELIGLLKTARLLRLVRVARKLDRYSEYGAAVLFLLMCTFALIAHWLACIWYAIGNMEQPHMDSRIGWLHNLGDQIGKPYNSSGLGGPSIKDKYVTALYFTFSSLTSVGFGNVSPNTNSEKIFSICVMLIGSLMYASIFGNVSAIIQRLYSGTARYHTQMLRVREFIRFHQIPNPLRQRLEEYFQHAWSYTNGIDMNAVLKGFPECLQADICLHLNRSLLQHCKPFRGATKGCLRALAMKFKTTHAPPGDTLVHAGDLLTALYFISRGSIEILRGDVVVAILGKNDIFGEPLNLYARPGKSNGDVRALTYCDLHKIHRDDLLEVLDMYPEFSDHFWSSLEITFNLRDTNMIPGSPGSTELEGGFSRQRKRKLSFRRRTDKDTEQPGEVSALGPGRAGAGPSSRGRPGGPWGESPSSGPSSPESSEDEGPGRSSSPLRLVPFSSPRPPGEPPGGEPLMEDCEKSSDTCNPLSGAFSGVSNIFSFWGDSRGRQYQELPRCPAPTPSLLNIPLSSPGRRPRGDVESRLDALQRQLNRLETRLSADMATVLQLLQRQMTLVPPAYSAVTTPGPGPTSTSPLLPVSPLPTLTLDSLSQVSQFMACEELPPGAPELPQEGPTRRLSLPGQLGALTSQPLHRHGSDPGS
Method: Inhibitory activity at HERG channel was estimated from affinity for HERG type potassium channel was investigated by checking [^3H]dofetilide binding, which can predict inhibitory activity at HERG channel (Eur. J. Pharmacol., 430, pp 147–148, 2001). Selected compounds with low [^3H]dofetilide binding activity were evaluated in IHERG assay to check activity at HERG channel. Introducing a branched chain group to nitrogen atom in piperidine ring contributed to potent 5-HT4 receptor agonist activities with reduced inhibitory activity at HERG channel. The compounds of the present invention may show less toxicity, good absorption, distribution and less drug-drug interaction, and have metabolic stability.
Human HERG transfected HEK293S cells were prepared and grown in-house. The collected cells were suspended in 50 mM Tris-HCl (pH 7.4 at 4° C.) and homogenized using a hand held Polytron PT 1200 disruptor set at full power for 20 sec on ice. The homogenates were centrifuged at 48,000×g at 4° C. for 20 min. The pellets were then resuspended, homogenized, and centrifuged once more in the same manner. The final pellets were resuspended in an appropriate volume of 50 mM Tris-HCl, 10 mM KCl, 1 mM MgCl2 (pH 7.4 at 4° C.), homogenized, aliquoted and stored at −80° C. until use. An aliquot of membrane fractions was used for protein concentration determination using BCA protein assay kit (PIERCE) and ARVOsx plate reader (Wallac).
Binding assays were conducted in a total volume of 200 μl in 96-well plates. Twenty μl of test compounds were incubated with 20 μl of [^3H]-dofetilide (Amersham, final 5 nM) and 160 μl of membrane homogenate (25 μg protein) for 60 minutes at room temperature. Nonspecific binding was determined by 10 μM dofetilide at the final concentration. Incubation was terminated by rapid vacuum filtration over 0.5% presoaked GF/B Betaplate filter using Skatron cell harvester with 50 mM Tris-HCl, 10 mM KCl, 1 mM MgCl2, pH 7.4 at 4° C. The filters were dried, put into sample bags and filled with Betaplate Scint. Radioactivity bound to filter was counted with Wallac Betaplate counter.

Row | Structure (SMILES) | Ki [1] [nM] | TI (Defetilide/5HT4) [2] | Ki [2] [nM] | melting point [°C]
1 | CCCCN1CCC(CNC(=O)c2cc(Cl)c(N)n3cc(C)nc23)CC1 [Compound A, reference compound] | 1.2 | 1,900 | 2300 | 
2 | COCCCN1CCC(CNC(=O)c2cc(Cl)c(N)n3cc(C)nc23)CC1 [Compound B, reference compound] | 4.6 | 1,300 | 6000 | 
3 | Cc1cn2c(N)c(Cl)cc(C(=O)NCC3CCN(CC(C)C)CC3)c2n1 [Example 1, 5-Amino-6-chloro-N-[(1-isobutylpiperidin-4-yl)methyl]-2-methylimidazo[1,2-a]pyridine-8-carboxamide] | 0.82 | 7,000 | 5750 | 216 to 219
4 | Cc1cn2c(N)ccc(C(=O)NCC3CCN(CC(C)C)CC3)c2n1 [Example 2, 5-Amino-N-[(1-isobutylpiperidi-4-yl)methyl]-2-methylimidazo[1,2-a]pyridine-8-carboxamide] | 3.1 | 7,800 | 24100 | 
5 | CCc1cn2c(N)c(Cl)cc(C(=O)NCC3CCN(CCC(C)(C)C)CC3)c2n1 [Example 3, 5-Amino-6-chloro-N-{[1-(3,3-dimethylbutyl)piperidin-4-yl]methyl}-2-ethylimidazo[1,2-a]pyridine-8-carboxamide] | 0.77 | 5,000 | 3870 | 234
6 | CCc1cn2c(N)c(Cl)cc(C(=O)NCC3CCN(CC(C)(C)OC)CC3)c2n1 [Example 4, 5-Amino-6-chloro-2-ethyl-N-{[1-(2-methoxy-2-methylpropyl)piperidin-4-yl]methyl}imidazo[1,2-a]pyridine-8-carboxamide] | 1.2 |  | 22300 | 211
7 | COC(C)(C)CN1CCC(CNC(=O)c2cc(Cl)c(N)n3cc(C)nc23)CC1 [Example 5, 5-Amino-6-chloro-2-methyl-N-{[1-(2-methoxy-2-methylpropyl)piperidin-4-yl]methyl}imidazo[1,2-a]pyridine-8-carboxamide] | 2 |  | > 24000 | 211
8 | COC(C)(C)CCN1CCC(CNC(=O)c2cc(Cl)c(N)n3cc(C)nc23)CC1 [Example 8, 5-Amino-6-chloro-N-{[1-(3-methoxy-3-methylbutyl)piperidin-4-yl]methyl}2-methylimidazo[1,2-a]pyridine-8-carboxamide] |  |  |  | 199
9 | COCC(C)(C)CN1CCC(CNC(=O)c2cc(Cl)c(N)n3cc(C)nc23)CC1 [Example 9, 5-amino-6-chloro-N-{[1-(3-methoxy-2,2-dimethylpropyl)piperidin-4-yl]methyl}2-methylimidazo[1,2-a]pyridine-8-carboxamide] |  |  |  | 199
